Tests used:
BACE2 = BACE2 (Homo sapiens (Human), UniProt Q9Y5Z0); test: In vitro enzymatic BACE2 FRET assay; assay type: biochemical; settings: read-out: IC50 IP (μM) BACE2 Enzyme
Description: In Vitro Enzymatic BACE1 and BACE2 FRET (Fluorescence Resonance Energy Transfer) Assays (Enzyme Assay Data in Table 1)

Cathepsin D (CatD) = Cathepsin D (CatD) (Homo sapiens (Human), UniProt P07339); test: CatD assay; assay type: biochemical; settings: read-out: IC50 IP (μM) CatD
Cathepsin D (CatD), sequence (P07339 65-412, species assumed): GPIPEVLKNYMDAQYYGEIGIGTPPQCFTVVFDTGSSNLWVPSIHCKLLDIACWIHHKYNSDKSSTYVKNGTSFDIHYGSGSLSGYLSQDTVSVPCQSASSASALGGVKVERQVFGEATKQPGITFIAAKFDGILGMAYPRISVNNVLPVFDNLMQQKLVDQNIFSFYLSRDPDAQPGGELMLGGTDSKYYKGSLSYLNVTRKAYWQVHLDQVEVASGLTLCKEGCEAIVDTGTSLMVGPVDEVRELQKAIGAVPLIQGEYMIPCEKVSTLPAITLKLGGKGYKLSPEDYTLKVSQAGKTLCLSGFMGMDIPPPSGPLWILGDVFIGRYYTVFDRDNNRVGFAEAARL

BACE2, sequence (Q9Y5Z0 63-518): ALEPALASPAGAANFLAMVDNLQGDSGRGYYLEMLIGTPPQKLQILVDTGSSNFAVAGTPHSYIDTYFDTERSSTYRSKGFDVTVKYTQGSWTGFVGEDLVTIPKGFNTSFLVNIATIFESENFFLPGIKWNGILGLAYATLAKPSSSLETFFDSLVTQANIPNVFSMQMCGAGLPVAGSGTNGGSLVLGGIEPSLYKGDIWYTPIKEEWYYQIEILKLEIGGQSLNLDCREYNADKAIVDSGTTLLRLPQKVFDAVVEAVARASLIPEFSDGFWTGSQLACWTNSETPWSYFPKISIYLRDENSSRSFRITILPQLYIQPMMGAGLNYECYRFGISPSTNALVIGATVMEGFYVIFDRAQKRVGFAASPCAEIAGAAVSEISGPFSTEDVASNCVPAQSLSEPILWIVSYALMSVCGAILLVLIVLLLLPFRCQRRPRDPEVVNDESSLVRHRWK

SMILES	IC50 (BACE2) [µM]	IC50 (Cathepsin D (CatD)) [µM]
C[C@@H]1CC[C@@H](C)N1C(=O)[C@]12C[C@H]1[C@@](C)(c1cc(/C=C(\F)c3ccc(C#N)cn3)ccc1F)N=C(N)S2 [Example 133, 6-((Z)-2-(3-((1S,5S,6S)-3-amino-1-((2R,5R)-2,5-dimethylpyrrolidine-1-carbonyl)-5-methyl-2-thia-4-azabicyclo[4.1.0]hept-3-en-5-yl)-4-fluorophenyl)-1-fluorovinyl)nicotinonitrile]	0.099	146
C#CCOc1cnc(/C(F)=C/c2ccc(F)c([C@@]3(C)N=C(N)S[C@@]4(C(=O)N(C)C)C[C@H]43)c2)cn1 [Example 153, (1S,5S,6S)-3-amino-5-(2-fluoro-5-((Z)-2-fluoro-2-(5-(prop-2-yn-1-yloxy)pyrazin-2-yl)vinyl)phenyl)-N,N,5-trimethyl-2-thia-4-azabicyclo[4.1.0]hept-3-ene-1-carboxamide]	0.0518	106
C[C@]1(c2cc(/C=C(\F)c3ccc(Cl)cn3)ccc2F)N=C(N)S[C@@]2(CO)C[C@H]21 [Example 113, ((1S,5S,6S)-3-amino-5-(5-((Z)-2-(5-chloropyridin-2-yl)-2-fluorovinyl)-2-fluorophenyl)-5-methyl-2-thia-4-azabicyclo[4.1.0]hept-3-en-1-yl)methanol]	0.0339	400
CN(C)C(=O)[C@]12C[C@H]1[C@@](C)(c1cc(/C=C(\F)c3cnc(C#N)cn3)ccc1F)N=C(N)S2 [Example 169, (1S,5S,6S)-3-amino-5-(5-((Z)-2-(5-cyanopyrazin-2-yl)-2-fluorovinyl)-2-fluorophenyl)-N,N,5-trimethyl-2-thia-4-azabicyclo[4.1.0]hept-3-ene-1-carboxamide]	0.0174	95.5
C[C@]1(c2cc(/C=C(\F)c3ccc(C#N)cn3)ccc2F)N=C(N)S[C@@]2(C(=O)NC3CCOCC3)C[C@H]21 [Example 128, (1S,5S,6S)-3-amino-5-(5-((Z)-2-(5-cyanopyridin-2-yl)-2-fluorovinyl)-2-fluorophenyl)-5-methyl-N-(tetrahydro-2H-pyran-4-yl)-2-thia-4-azabicyclo[4.1.0]hept-3-ene-1-carboxamide]	0.0892	144
C[C@]1(c2cc(/C=C(\F)c3ccc(C#N)cn3)ccc2F)N=C(N)S[C@@]2(C(=O)N3CCC(C(F)(F)F)CC3)C[C@H]21 [Example 139, 6-((Z)-2-(3-((1S,5S,6S)-3-amino-5-methyl-1-(4-(trifluoromethyl)piperidine-1-carbonyl)-2-thia-4-azabicyclo[4.1.0]hept-3-en-5-yl)-4-fluorophenyl)-1-fluorovinyl)nicotinonitrile]	0.00257	81.5
COC[C@@]12SC(N)=N[C@](C)(c3cc(/C=C(\F)c4ccc(C#N)cn4)ccc3F)[C@@H]1C2(F)F [Example 258, 6-((Z)-2-(3-((1S,5S,6R)-3-amino-7,7-difluoro-1-(methoxymethyl)-5-methyl-2-thia-4-azabicyclo[4.1.0]hept-3-en-5-yl)-4-fluorophenyl)-1-fluorovinyl)nicotinonitrile]	0.118	90.7
CC1CC(C)CN(C(=O)[C@]23C[C@H]2[C@@](C)(c2cc(/C=C(\F)c4ccc(C#N)cn4)ccc2F)N=C(N)S3)C1 (stereo partly drawn) [Example 137, 6-((Z)-2-(3-((1S,5S,6S)-3-amino-1-(3,5-dimethylpiperidine-1-carbonyl)-5-methyl-2-thia-4-azabicyclo[4.1.0]hept-3-en-5-yl)-4-fluorophenyl)-1-fluorovinyl)nicotinonitrile]	0.21	43.2
C[C@]1(c2cc(/C=C(\F)c3ccc(C#N)cn3)ccc2F)N=C(N)S[C@@]2(C(=O)NC3CC3)C[C@H]21 [Example 121, (1S,5S,6S)-3-amino-5-(5-((Z)-2-(5-cyanopyridin-2-yl)-2-fluorovinyl)-2-fluorophenyl)-N-cyclopropyl-5-methyl-2-thia-4-azabicyclo[4.1.0]hept-3-ene-1-carboxamide]	0.164	52.9
COC(=O)[C@@]12SC(N)=N[C@](C)(c3cc(/C=C(\F)c4ccc(C#N)cn4)ccc3F)[C@@H]1C2(F)F [Example 256, (1S,5S,6R)-methyl 3-amino-5-(5-((Z)-2-(5-cyanopyridin-2-yl)-2-fluorovinyl)-2-fluorophenyl)-7,7-difluoro-5-methyl-2-thia-4-azabicyclo[4.1.0]hept-3-ene-1-carboxylate]	0.252	760
C#Cc1cnc(/C(F)=C/c2ccc(F)c([C@@]3(C)N=C(N)S[C@@]4(C(=O)NC)C[C@H]43)c2)cn1 [Example 167, (1S,5S,6S)-3-amino-5-(5-((Z)-2-(5-ethynylpyrazin-2-yl)-2-fluorovinyl)-2-fluorophenyl)-N,5-dimethyl-2-thia-4-azabicyclo[4.1.0]hept-3-ene-1-carboxamide]	0.16	–
CC(O)CCNC(=O)[C@]12C[C@H]1[C@@](C)(c1cc(/C=C(\F)c3ccc(Cl)cn3)ccc1F)N=C(N)S2 (stereo partly drawn) [Example 115, (1S,5S,6S)-3-amino-5-(5-((Z)-2-(5-chloropyridin-2-yl)-2-fluorovinyl)-2-fluorophenyl)-N-(3-hydroxybutyl)-5-methyl-2-thia-4-azabicyclo[4.1.0]hept-3-ene-1-carboxamide]	–	57.6
C[C@]1(c2cc(/C=C(\F)c3ccc(Cl)cn3)ccc2F)N=C(N)S[C@@]2(C(=O)N3CCC3)C[C@H]21 [Example 112, ((1S,5S,6S)-3-amino-5-(5-((Z)-2-(5-chloropyridin-2-yl)-2-fluorovinyl)-2-fluorophenyl)-5-methyl-2-thia-4-azabicyclo[4.1.0]hept-3-en-1-yl)(azetidin-1-yl)methanone]	–	97.6
CNC(=O)[C@]12C[C@H]1[C@@](C)(c1cc(/C=C(\F)c3cnc(OCC(F)(F)C(F)F)cn3)ccc1F)N=C(N)S2 [Example 161, (1S,5S,6S)-3-amino-5-(2-fluoro-5-((Z)-2-fluoro-2-(5-(2,2,3,3-tetrafluoropropoxy)pyrazin-2-yl)vinyl)phenyl)-N,5-dimethyl-2-thia-4-azabicyclo[4.1.0]hept-3-ene-1-carboxamide]	0.755	–

Next, values leading:

IC50 (BACE2) [µM]	IC50 (Cathepsin D (CatD)) [µM]	SMILES
0.385	1190	CN(C)C(=O)[C@]12C[C@H]1[C@@](C)(c1cc(/C=C(\F)c3cc4nccnc4cn3)ccc1F)N=C(N)S2 [Example 247, (1S,5S,6S)-3-amino-5-(2-fluoro-5-((Z)-2-fluoro-2-(pyrido[3,4-b]pyrazin-7-yl)vinyl)phenyl)-N,N,5-trimethyl-2-thia-4-azabicyclo[4.1.0]hept-3-ene-1-carboxamide]
0.0823	167	CN(C)C(=O)[C@]12C[C@H]1[C@@](C)(c1cc(/C=C(\F)c3cnc(OCC(F)(F)F)cn3)ccc1F)N=C(N)S2 [Example 155, (1S,5S,6S)-3-amino-5-(2-fluoro-5-((Z)-2-fluoro-2-(5-(2,2,2-trifluoroethoxy)pyrazin-2-yl)vinyl)phenyl)-N,N,5-trimethyl-2-thia-4-azabicyclo[4.1.0]hept-3-ene-1-carboxamide]
0.0127	152	C[C@]1(c2cc(/C=C(\F)c3ccc(C#N)cn3)ccc2F)N=C(N)S[C@@]2(C(=O)N3CCCC(C#N)C3)C[C@H]21 (stereo partly drawn) [Example 143, 6-((Z)-2-(3-((1S,5S,6S)-3-amino-1-(3-cyanopiperidine-1-carbonyl)-5-methyl-2-thia-4-azabicyclo[4.1.0]hept-3-en-5-yl)-4-fluorophenyl)-1-fluorovinyl)nicotinonitrile]
0.642	824	CN(C)C(=O)[C@]12C[C@H]1[C@@](C)(c1cc(/C=C(\F)c3ccc(C#N)nc3)ccc1F)N=C(N)S2 [Example 171, (1S,5S,6S)-3-amino-5-(5-((Z)-2-(6-cyanopyridin-3-yl)-2-fluorovinyl)-2-fluorophenyl)-N,N,5-trimethyl-2-thia-4-azabicyclo[4.1.0]hept-3-ene-1-carboxamide]
0.0364	204	CNC(=O)[C@]12C[C@H]1[C@@](C)(c1cc(/C=C(\F)c3ccc(Cl)cn3)ccc1F)N=C(N)S2 [Example 175, (1S,5S,6S)-3-amino-5-(5-((Z)-2-(5-chloropyridin-2-yl)-2-fluorovinyl)-2-fluorophenyl)-N,5-dimethyl-2-thia-4-azabicyclo[4.1.0]hept-3-ene-1-carboxamide]
0.007	401	C[C@]1(O)CCN(C(=O)[C@]23C[C@H]2[C@@](C)(c2cc(/C=C(\F)c4ccc(C#N)cn4)ccc2F)N=C(N)S3)C1 [Example 309, 6-((Z)-2-(3-((1S,5S,6S)-3-amino-1-((S)-3-hydroxy-3-methylpyrrolidine-1-carbonyl)-5-methyl-2-thia-4-azabicyclo[4.1.0]hept-3-en-5-yl)-4-fluorophenyl)-1-fluorovinyl)nicotinonitrile]
0.117	9.28	CN(C)C(=O)[C@]12C[C@H]1[C@@](C)(c1cc(/C=C\F)ccc1F)N=C(N)S2 [Example 208, (1S,5S,6S)-3-amino-5-(2-fluoro-5-((Z)-2-fluorovinyl)phenyl)-N,N,5-trimethyl-2-thia-4-azabicyclo[4.1.0]hept-3-ene-1-carboxamide]
0.125	287	CN(C)C(=O)[C@]12C[C@H]1[C@@](C)(c1cc(/C=C(\F)c3cnc(OCC(F)(F)F)cn3)cnc1F)N=C(N)S2 [Example 282, (1S,5S,6S)-3-amino-5-(2-fluoro-5-((Z)-2-fluoro-2-(5-(2,2,2-trifluoroethoxy)pyrazin-2-yl)vinyl)pyridin-3-yl)-N,N,5-trimethyl-2-thia-4-azabicyclo[4.1.0]hept-3-ene-1-carboxamide]
0.0174	42.6	CC1CCCN(C(=O)[C@]23C[C@H]2[C@@](C)(c2cc(/C=C(\F)c4ccc(C#N)cn4)ccc2F)N=C(N)S3)C1 (stereo partly drawn) [Example 145, 6-((Z)-2-(3-((1S,5S,6S)-3-amino-5-methyl-1-(3-methylpiperidine-1-carbonyl)-2-thia-4-azabicyclo[4.1.0]hept-3-en-5-yl)-4-fluorophenyl)-1-fluorovinyl)nicotinonitrile]
0.041	434	C[C@@]1(O)CCN(C(=O)[C@]23C[C@H]2[C@@](C)(c2cc(/C=C(\F)c4ccc(C#N)cn4)ccc2F)N=C(N)S3)C1 (single isomer, unassigned) [Example 310]
